Tested on: Aβ42
Experiment: In vitro cell screening assay in H4 cells expressing human APP751: Aβ42 by sandwich ELISA
Type: cell-based
Settings: compounds 0.003-10 μM, incubated overnight (16-18 h), sandwich ELISA of supernatant
Procedure, shortened: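 H4 neuroglioma cells stably expressing wild-type human APP751, switched to Pro293 medium and treated with compounds (0.003-10 μM, 0.33% DMSO) for 16-18 h at 37 °C. Supernatant Aβ42 quantified by sandwich ELISA (C-terminal capture, 4G8-HRP detection, A450); EC50 by sigmoidal fit normalized to DMSO and DAPT controls.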

EC50	EC50 (Homo sapiens)	Structure (SMILES)
9.1 nM	–	COc1nc(C2=NOCC(c3sc4ccccc4c3C)N2)ccc1-n1cnc(C)c1 (single isomer, unassigned; (+)) [Example 66B, (+)-3-(6-methoxy-5-(4-methyl-1H-imidazol-1-yl)pyridin-2-yl)-5-(3-methylbenzo [b]thiophen-2-yl)-5,6-dihydro-4H-1,2,4-oxadiazine]
202 nM	–	COc1ccc2c(c1)c(C1CON=C(c3ccc(-n4cnc(C)c4)c(OC)n3)N1)cn2C (single isomer, unassigned; (-)) [Example 250A, (−)-5-(5-methoxy-1-methyl-1H-indol-3-yl)-3-(6-methoxy-5-(4-methyl-1H-imidazol-1-yl)pyridin-2-yl)-5,6-dihydro-4H-1,2,4-oxadiazine]
–	18.4 nM	COc1nc(C2=NOC[C@H](c3cc4ccc(C)cc4o3)N2)ccc1-n1cnc(C)c1 [Example 22, (R)-3-(6-Methoxy-5-(4-methyl-1H-imidazol-1-yl)pyridin-2-yl)-5-(6-methylbenzofuran-2-yl)-5,6-dihydro-4H-1,2,4-oxadiazine]
11.4 nM	–	COc1nc(C2=NOCC(c3ccc(Cl)c(Cl)c3)N2)ccc1-n1cnc(C)c1 (single isomer, unassigned; (+)) [Example 49B, (+)-5-(3,4-dichlorophenyl)-3-(6-methoxy-5-(4-methyl-1H-imidazol-1-yl)pyridin-2-yl)-5,6-dihydro-4H-1,2,4-oxadiazine]
450 nM	–	COc1nc(C2=NOCC(c3cn(C)c4ncc(C5CC5)cc34)N2)ccc1-n1cnc(C)c1 (single isomer, unassigned; (-)) [Example 266A, (−)-5-(5-cyclopropyl-1-methyl-1H-pyrrolo[2,3-b]pyridin-3-yl)-3-(6-methoxy-5-(4-methyl-1H-imidazol-1-yl)pyridin-2-yl)-5,6-dihydro-4H-1,2,4-oxadiazine]
1720 nM	–	COc1nc(C2=NOCC(C(C)(C)C)N2)ccc1-n1cnc(C)c1 (single isomer, unassigned; (+)) [Example 147B, (+)-5-(tert-butyl)-3-(6-methoxy-5-(4-methyl-1H-imidazol-1-yl)pyridin-2-yl)-5,6-dihydro-4H-1,2,4-oxadiazine]
15.8 nM	–	COc1ccc2c(c1)c(C1CON=C(c3ccc(-n4cnc(C)c4)c(OC)n3)N1)cn2C (single isomer, unassigned; (+)) [Example 250B, (+)-5-(5-methoxy-1-methyl-1H-indol-3-yl)-3-(6-methoxy-5-(4-methyl-1H-imidazol-1-yl)pyridin-2-yl)-5,6-dihydro-4H-1,2,4-oxadiazine]
44.2 nM	–	COc1nc(C2=NOCC(c3cc4cccc(F)c4o3)N2)ccc1-n1cnc(C)c1 (single isomer, unassigned; (+)) [Example 89B, (+)-5-(7-fluorobenzofuran-2-yl)-3-(6-methoxy-5-(4-methyl-1H-imidazol-1-yl)pyridin-2-yl)-5,6-dihydro-4H-1,2,4-oxadiazine]
14 nM	–	COc1nc(C2=NOCC(c3ccc4c(c3)OC(F)(F)O4)N2)ccc1-n1cnc(C)c1 (single isomer, unassigned; (+)) [Example 225B]
> 3000 nM	–	COc1nc(C2=NOCC(c3cnn(C)c3)N2)ccc1-n1cnc(C)c1 (single isomer, unassigned; (+)) [Example 166B, (+)-3-(6-methoxy-5-(4-methyl-1H-imidazol-1-yl)pyridin-2-yl)-5-(1-methyl-1H-pyrazol-4-yl)-5,6-dihydro-4H-1,2,4-oxadiazine]
> 3000 nM	–	COc1nc(C2=NOCC(c3cc(F)c(F)c(F)c3)N2)ccc1-n1cnc(C)c1 (single isomer, unassigned; (-)) [Example 91A, (−)-3-(6-methoxy-5-(4-methyl-1H-imidazol-1-yl)pyridin-2-yl)-5-(3,4,5-trifluorophenyl)-5,6-dihydro-4H-1,2,4-oxadiazine]
> 3000 nM	–	COc1nc(C2=NOCC(c3nc4ccccc4s3)N2)ccc1-n1cnc(C)c1 (single isomer, unassigned; (-)) [Example 208A, (−)-5-(benzo[d]thiazol-2-yl)-3-(6-methoxy-5-(4-methyl-1H-imidazol-1-yl)pyridin-2-yl)-5,6-dihydro-4H-1,2,4-oxadiazine]
9 nM	–	COc1nc(C2=NOCC(c3cc4cc(C(F)(F)F)ccc4o3)N2)ccc1-n1cnc(C)c1 (single isomer, unassigned; (+)) [Example 259B, (+)-3-(6-methoxy-5-(4-methyl-1H-imidazol-1-yl)pyridin-2-yl)-5-(5-(trifluoromethyl)benzofuran-2-yl)-5,6-dihydro-4H-1,2,4-oxadiazine]
> 3000 nM	–	COc1nc(C2=NOCC(c3cc4ccccc4o3)N2)ccc1-n1cnc(C)n1 (single isomer, unassigned; (-)) [Example 31A, (−)-5-(Benzofuran-2-yl)-3-(6-methoxy-5-(3-methyl-1H-1,2,4-triazol-1-yl)pyridin-2-yl)-5,6-dihydro-4H-1,2,4-oxadiazine]
170 nM	–	COc1nc(C2=NOCC(c3cn(C)c4cc(F)ccc34)N2)ccc1-n1cnc(C)c1 (single isomer, unassigned; (-)) [Example 192A, (−)-5-(6-fluoro-1-methyl-1H-indol-3-yl)-3-(6-methoxy-5-(4-methyl-1H-imidazol-1-yl)pyridin-2-yl)-5,6-dihydro-4H-1,2,4-oxadiazine]
11.2 nM	–	COc1nc(C2=NOCC(c3cn(C4CC4)c4cccc(F)c34)N2)ccc1-n1cnc(C)c1 (single isomer, unassigned; (+)) [Example 222A, (+)-5-(1-cyclopropyl-4-fluoro-1H-indol-3-yl)-3-(6-methoxy-5-(4-methyl-1H-imidazol-1-yl)pyridin-2-yl)-5,6-dihydro-4H-1,2,4-oxadiazine]
15.5 nM	–	COc1nc(C2=NOCC(c3cn(C)c4ncc(C5CC5)cc34)N2)ccc1-n1cnc(C)c1 (single isomer, unassigned; (+)) [Example 266B, (+)-5-(5-cyclopropyl-1-methyl-1H-pyrrolo[2,3-b]pyridin-3-yl)-3-(6-methoxy-5-(4-methyl-1H-imidazol-1-yl)pyridin-2-yl)-5,6-dihydro-4H-1,2,4-oxadiazine]
105 nM	–	COc1nc(C2=NOCC(c3cn(C)c4cccc(C(F)(F)F)c34)N2)ccc1-n1cnc(C)c1 (single isomer, unassigned; (+)) [Example 230A, (+)-3-(6-methoxy-5-(4-methyl-1H-imidazol-1-yl)pyridin-2-yl)-5-(1-methyl-4-(trifluoromethyl)-1H-indol-3-yl)-5,6-dihydro-4H-1,2,4-oxadiazine]
220 nM	–	COc1nc(C2=NOCC(c3cn(C(C)C)c4cccc(F)c34)N2)ccc1-n1cnc(C)c1 (single isomer, unassigned; (-)) [Example 196B, (−)-5-(4-fluoro-1-isopropyl-1H-indol-3-yl)-3-(6-methoxy-5-(4-methyl-1H-imidazol-1-yl)pyridin-2-yl)-5,6-dihydro-4H-1,2,4-oxadiazine]
> 3000 nM	–	COc1nc(C2=NOCC(c3cccc(C(F)(F)F)c3)N2)ccc1-n1cnc(C)c1 (single isomer, unassigned; (-)) [Example 113A, (−)-3-(6-methoxy-5-(4-methyl-1H-imidazol-1-yl)pyridin-2-yl)-5-(3-(trifluoromethyl)phenyl)-5,6-dihydro-4H-1,2,4-oxadiazine]
> 3000 nM	–	CCC1CON=C(c2ccc(-n3cnc(C)c3)c(OC)n2)N1 (single isomer, unassigned) [Example 133A, 5-ethyl-3-(6-methoxy-5-(4-methyl-1H-imidazol-1-yl)pyridin-2-yl)-5,6-dihydro-4H-1,2,4-oxadiazine]
> 3000 nM	–	COc1nc(C2=NOCC(c3cc(F)c(Cl)c(F)c3)N2)ccc1-n1cnc(C)c1 (single isomer, unassigned; (-)) [Example 267A, (−)-5-(4-chloro-3,5-difluorophenyl)-3-(6-methoxy-5-(4-methyl-1H-imidazol-1-yl)pyridin-2-yl)-5,6-dihydro-4H-1,2,4-oxadiazine]
> 3000 nM	–	COc1nc(C2=NOCC(C3CC(F)(F)C3)N2)ccc1-n1cnc(C)c1 (single isomer, unassigned; (-)) [Example 180A, (−)-5-(3,3-difluorocyclobutyl)-3-(6-methoxy-5-(4-methyl-1H-imidazol-1-yl)pyridin-2-yl)-5,6-dihydro-4H-1,2,4-oxadiazine]
21.8 nM	–	COc1nc(C2=NOCC(c3ccc(OC(F)(F)F)cc3)N2)ccc1-n1cnc(C)c1 (single isomer, unassigned; (+)) [Example 70B, (+)-3-(6-methoxy-5-(4-methyl-1H-imidazol-1-yl)pyridin-2-yl)-5-(4-(trifluoromethoxy)phenyl)-5,6-dihydro-4H-1,2,4-oxadiazine]
25.7 nM	–	COc1nc(C2=NOCC(C3Cc4ccccc4C3)N2)ccc1-n1cnc(C)c1 (single isomer, unassigned; (+)) [Example 246B, (+)-5-(2,3-dihydro-1H-inden-2-yl)-3-(6-methoxy-5-(4-methyl-1H-imidazol-1-yl)pyridin-2-yl)-5,6-dihydro-4H-1,2,4-oxadiazine]
> 3000 nM	–	COc1nc(C2=NOCC(c3oc(C)nc3C)N2)ccc1-n1cnc(C)c1 (single isomer, unassigned; (+)) [Example 161B, (+)-5-(2,4-dimethyloxazol-5-yl)-3-(6-methoxy-5-(4-methyl-1H-imidazol-1-yl)pyridin-2-yl)-5,6-dihydro-4H-1,2,4-oxadiazine]
–	47.1 nM	COc1nc(C2=NOCC(c3cn(C)c4cccc(C#N)c34)N2)ccc1-n1cnc(C)c1 (single isomer, unassigned; (+)) [Example 247A, (+)-3-(3-(6-methoxy-5-(4-methyl-1H-imidazol-1-yl)pyridin-2-yl)-5,6-dihydro-4H-1,2,4-oxadiazin-5-yl)-1-methyl-1H-indole-4-carbonitrile]
270 nM	–	COc1nc(C2=NOCC(c3ccc(C(C)(C)O)cc3)N2)ccc1-n1cnc(C)c1 (single isomer, unassigned; (+)) [Example 268B, (+)-2-(4-(3-(6-methoxy-5-(4-methyl-1H-imidazol-1-yl)pyridin-2-yl)-5,6-dihydro-4H-1,2,4-oxadiazin-5-yl)phenyl)propan-2-ol]

Source: patent US9802927B2, “Oxadiazine compounds and methods of use thereof” (Denali Therapeutics, Inc., priority 2015, dated 2017)
